Assay [1] concerns the target T1, MAGL (Homo sapiens, UniProt Q99685).
T1 sequence (Q99685 1-303): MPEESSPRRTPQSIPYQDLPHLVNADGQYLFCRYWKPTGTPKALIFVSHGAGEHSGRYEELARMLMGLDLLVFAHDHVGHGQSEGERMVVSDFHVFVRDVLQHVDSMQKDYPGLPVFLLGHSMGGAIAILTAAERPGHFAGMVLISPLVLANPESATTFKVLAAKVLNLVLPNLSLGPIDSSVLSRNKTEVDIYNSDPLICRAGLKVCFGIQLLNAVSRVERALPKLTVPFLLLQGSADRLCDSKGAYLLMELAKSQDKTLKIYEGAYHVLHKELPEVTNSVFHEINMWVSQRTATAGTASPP
Nature of the assay: In vitro competitive substrate hydrolysis enzyme activity assay (pNPA), HEK293 cell lysates. To be noted: HEK293 lysate. In kind it is biochemical. Also noted: expressed in transfected cells; host or cells: HEK293. As to the method:
HEK293 cell lysates expressing recombinant human MAGL enzyme and 4-nitrophenyl acetate (pNPA) substrate were diluted separately in 50 mM HEPES (pH 7.0) containing 200 mM KCl and 1 mM EDTA. Lysates (50 μL, ˜1.2 μg total protein) were preincubated with varying concentrations of inhibitors at 25° C. After 30 min, 2×pNPA substrate (50 μL, 2.5 mM) was added and the rate of substrate turnover was monitored by measuring the increase in absorbance at wavelength 405 nm for 20 minutes at 25° C. using a Biotek Neo2 plate reader. The mean velocity was converted to percent enzyme activity following background subtraction and normalization to DMSO controls. IC50 values were determined by fitting percent enzyme activities to a non-linear regression, 4-parameter, sigmoidal dose response function in Prism GraphPad.

Assay [2] concerns the target T1, MAGL. Briefly: In vitro competitive activity-based protein profiling, PC3 human cell membrane proteomes. In kind it is biochemical. Also on record: endogenous in cells; host or cells: PC3 human cells (membrane proteome). Particulars: human PC3 membrane proteome; for inhibition at 1 µM: read-out: MAGL % inh. 1 μM (human PC3). The method, boiled down: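 Competitive ABPP in PC3 membrane proteome (2.0 mg/mL protein): inhibitors preincubated 30 min at 37° C, then JW912-Bodipy probe added for 30 min at room temperature. MAGL band fluorescence after SDS-PAGE normalised to DMSO; IC50 from 4-parameter sigmoidal fit.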

Structures are written as SMILES.

The term IC50 denotes the concentration needed to halve the response being measured. A lower IC50 goes with greater potency.

As to `CN(C(=O)C1CC12CCN(C(=O)OC(C(F)(F)F)C(F)(F)F)CC2)c1ccccn1` (single isomer, unassigned) [Example 45, 1,1,1,3,3,3-hexafluoropropan-2-yl (R or S)-1-(methyl(pyridin-2-yl)carbamoyl)-6-azaspiro[2.5]octane-6-carboxylate], the half-inhibitory concentration (IC50) in assay [1] worked out at 0.06 µM. In assay [2], the inhibition at 1 µM came out at 100% and the concentration for half-maximal inhibition (IC50) is 0.014 µM.

`O=C(NCc1cccc(C(F)(F)F)n1)C1CC12CCN(C(=O)OC(C(F)(F)F)C(F)(F)F)CC2` (single isomer, unassigned) [Example 75, 1,1,1,3,3,3-hexafluoropropan-2-yl (R or S)-1-(((6-(trifluoromethyl)pyridin-2-yl)methyl)carbamoyl)-6-azaspiro[2.5]octane-6-carboxylate]: in assay [1], the IC50 stood at 0.00911 µM. For the same compound, the inhibition at 1 µM in assay [2] was 100%.

On to `O=C(Nc1cnccn1)C1CC12CCN(C(=O)OC(C(F)(F)F)C(F)(F)F)CC2` (single isomer, unassigned) [Example 54, 1,1,1,3,3,3-hexafluoropropan-2-yl (R or S)-1-(pyrazin-2-ylcarbamoyl)-6-azaspiro[2.5]octane-6-carboxylate], for which, in assay [1], the IC50 was 0.111 µM. For the same compound, the inhibition at 1 µM in assay [2] is 100%.

As for `O=C(NC(=O)C1CC12CCN(C(=O)OC(C(F)(F)F)C(F)(F)F)CC2)c1ccccc1` (single isomer, unassigned) [Example 93, 1,1,1,3,3,3-hexafluoropropan-2-yl (R or S)-1-(benzoylcarbamoyl)-6-azaspiro[2.5]octane-6-carboxylate], the IC50 in assay [1] came to 0.00284 µM. Besides, the inhibition at 1 µM in assay [2] stood at 100%.

Regarding `O=C(OC(C(F)(F)F)C(F)(F)F)N1CCC2(CC1)CC2C(=O)N1CCc2cnc(C(F)(F)F)nc2C1` (single isomer, unassigned) [Example 58, 1,1,1,3,3,3-hexafluoropropan-2-yl (R or S)-1-(2-(trifluoromethyl)-5,6,7,8-tetrahydropyrido[3,4-d]pyrimidine-7-carbonyl)-6-azaspiro[2.5]octane-6-carboxylate], the results for the half-inhibitory concentration (IC50) in assay [1] and in assay [2] were 0.138 µM and 0.049 µM, respectively.

With `O=C(NC(=O)C1CC12CCN(C(=O)OC(C(F)(F)F)C(F)(F)F)CC2)C1CCCCC1` (single isomer, unassigned) [Example 90, 1,1,1,3,3,3-hexafluoropropan-2-yl (R or S)-1-((cyclohexanecarbonyl)carbamoyl)-6-azaspiro[2.5]octane-6-carboxylate], the IC50 in assay [1] was 0.00579 µM; in assay [2], 0.0047 µM. The inhibition at 1 µM in assay [2] was 100%.

In assay [1], `O=C(Nc1cccc(C(F)(F)F)n1)C1CC12CCN(C(=O)OC(C(F)(F)F)C(F)(F)F)CC2` (single isomer, unassigned) [Example 72, 1,1,1,3,3,3-hexafluoropropan-2-yl (R or S)-1-((6-(trifluoromethyl)pyridin-2-yl)carbamoyl)-6-azaspiro[2.5]octane-6-carboxylate] returned a 50% inhibitory concentration (IC50) of 0.00617 µM. For the same compound, the inhibition at 1 µM in assay [2] was found to be 100%.

In turn, `CN(C(=O)[C@@H]1CC12CCN(C(=O)OC(C(F)(F)F)C(F)(F)F)CC2)c1cnccn1` (single isomer, unassigned) [Example 11] returned an IC50 in assay [1] of 0.0993 µM. Besides, in assay [2], the inhibition at 1 µM is 100% and the IC50 came to 0.032 µM.

`O=C(Nc1cncc(Cl)c1)C1CC12CCN(C(=O)OC(C(F)(F)F)C(F)(F)F)CC2` (single isomer, unassigned) [Example 66, 1,1,1,3,3,3-hexafluoropropan-2-yl (R or S)-1-((5-chloropyridin-3-yl)carbamoyl)-6-azaspiro[2.5]octane-6-carboxylate] showed a concentration for half-maximal inhibition (IC50) in assay [1] of 0.00102 µM. In assay [2], the inhibition at 1 µM is 100% and the 50% inhibitory concentration (IC50) was 0.0042 µM.

Compound `O=C(OC(C(F)(F)F)C(F)(F)F)N1CCC2(CC1)CC2C(=O)N1CCc2nc(C3CC3)ncc2C1` (single isomer, unassigned) [Example 63, 1,1,1,3,3,3-hexafluoropropan-2-yl (R or S)-1-(2-cyclopropyl-5,6,7,8-tetrahydropyrido[4,3-d]pyrimidine-6-carbonyl)-6-azaspiro[2.5]octane-6-carboxylate] came in with a 50% inhibitory concentration (IC50) in assay [1] of 0.0169 µM. In assay [2], the inhibition at 1 µM came to 100% and the IC50 stood at 0.007 µM.

For `O=C(NCc1cccc(C(F)(F)F)n1)C1CC12CCN(C(=O)OC(C(F)(F)F)C(F)(F)F)CC2` (single isomer, unassigned) [Example 76, 1,1,1,3,3,3-hexafluoropropan-2-yl (R or S)-1-(((6-(trifluoromethyl)pyridin-2-yl)methyl)carbamoyl)-6-azaspiro[2.5]octane-6-carboxylate], the values for the half-maximal inhibitory concentration (IC50) in assay [1] and in assay [2] were 0.00241 µM and 0.0035 µM, respectively.

On to `CN(C(=O)C1CC12CCN(C(=O)OC(C(F)(F)F)C(F)(F)F)CC2)c1cccnn1` (racemic) [Example 188, 1,1,1,3,3,3-hexafluoropropan-2-yl (+)1-(methyl(pyridazin-3-yl)carbamoyl)-6-azaspiro[2.5]octane-6-carboxylate], for which the figures for the IC50 in assay [1] and in assay [2] were 0.249 µM and 0.12 µM, respectively. For the same compound, in assay [2], the inhibition at 1 µM came to 100%.

As to `O=C(NCc1cccnc1)C1CC12CCN(C(=O)OC(C(F)(F)F)C(F)(F)F)CC2` (single isomer, unassigned) [Example 88, 1,1,1,3,3,3-hexafluoropropan-2-yl (R or S)-1-((pyridin-3-ylmethyl)carbamoyl)-6-azaspiro[2.5]octane-6-carboxylate], the IC50 in assay [1] stood at 0.0718 µM; in assay [2], 0.0325 µM.

Consider `CN(C(=O)C1CC12CCN(C(=O)OC(C(F)(F)F)C(F)(F)F)CC2)c1cccnc1` (single isomer, unassigned) [Example 43, 1,1,1,3,3,3-hexafluoropropan-2-yl (R or S)-1-(methyl(pyridin-3-yl)carbamoyl)-6-azaspiro[2.5]octane-6-carboxylate], for which the IC50 in assay [1] stood at 0.244 µM; in assay [2] it was 0.04 µM.

In turn, `O=C(Nc1ccccn1)C1CC12CCN(C(=O)OC(C(F)(F)F)C(F)(F)F)CC2` (single isomer, unassigned) [Example 48, 1,1,1,3,3,3-hexafluoropropan-2-yl (R or S)-1-(pyridin-2-ylcarbamoyl)-6-azaspiro[2.5]octane-6-carboxylate] displayed a half-maximal inhibitory concentration (IC50) in assay [1] of 0.139 µM. Also, the inhibition at 1 µM in assay [2] was determined as 100%.

For `O=C(Nc1cncnc1)C1CC12CCN(C(=O)OC(C(F)(F)F)C(F)(F)F)CC2` (single isomer, unassigned) [Example 97, 1,1,1,3,3,3-hexafluoropropan-2-yl (R or S)-1-(pyrimidin-5-ylcarbamoyl)-6-azaspiro[2.5]octane-6-carboxylate], the 50% inhibitory concentration (IC50) in assay [1] was 1.38 µM; in assay [2], 0.2 µM.

`O=C(NC(=O)C1CC12CCN(C(=O)OC(C(F)(F)F)C(F)(F)F)CC2)c1ccccc1` (single isomer, unassigned) [Example 94, 1,1,1,3,3,3-hexafluoropropan-2-yl (R or S)-1-(benzoylcarbamoyl)-6-azaspiro[2.5]octane-6-carboxylate]: the values for the IC50 in assay [1] and in assay [2] were 0.00323 µM and 0.0051 µM, respectively.

Turning to `O=C(OC(C(F)(F)F)C(F)(F)F)N1CCC2(CC1)CC2C(=O)N1CCN(C2CC2)CC1` (racemic) [Example 34, 1,1,1,3,3,3-Hexafluoropropan-2-yl (±)1-(4-cyclopropylpiperazine-1-carbonyl)-6-azaspiro[2.5]octane-6-carboxylate], in assay [1], the IC50 amounted to 0.148 µM. Further, in assay [2], the inhibition at 1 µM is 100%.

On to `O=C(Nc1cnc(C(F)(F)F)nc1)C1CC12CCN(C(=O)OC(C(F)(F)F)C(F)(F)F)CC2` (single isomer, unassigned) [Example 99, 1,1,1,3,3,3-hexafluoropropan-2-yl (R or S)-1-((2-(trifluoromethyl)pyrimidin-5-yl)carbamoyl)-6-azaspiro[2.5]octane-6-carboxylate], for which the half-maximal inhibitory concentration (IC50) in assay [1] was 0.00552 µM; in assay [2], 0.0097 µM.

`O=C(NCc1cccnc1)C1CC12CCN(C(=O)OC(C(F)(F)F)C(F)(F)F)CC2` (single isomer, unassigned) [Example 87, 1,1,1,3,3,3-hexafluoropropan-2-yl (R or S)-1-((pyridin-3-ylmethyl)carbamoyl)-6-azaspiro[2.5]octane-6-carboxylate] came in with a concentration for half-maximal inhibition (IC50) in assay [1] of 0.463 µM. Moreover, in assay [2], the inhibition at 1 µM is 100% and the 50% inhibitory concentration (IC50) amounted to 0.2 µM.

As to `Cc1ccc(NC(=O)C2CC23CCN(C(=O)OC(C(F)(F)F)C(F)(F)F)CC3)cn1` (single isomer, unassigned) [Example 81, 1,1,1,3,3,3-hexafluoropropan-2-yl (R or S)-1-((6-methylpyridin-3-yl)carbamoyl)-6-azaspiro[2.5]octane-6-carboxylate], the IC50 in assay [1] was determined as 0.000864 µM; in assay [2] it was 0.00087 µM. Further, the inhibition at 1 µM in assay [2] is 100%.

Source of the values: patent US20240018120A1, “MAGL INHIBITORS” (H. LUNDBECK A/S, priority 2020, published 2024).
